Active and inactive are the calls of the source. Rule as the data show it, for most assays here: actives have a measured IC50 and inactives only a lower limit.

Consider 1 compound from ChEMBL document CHEMBL1201862, “PubChem BioAssay data set” (2004).

Common to all, as to assay type: functional
Assay [1] addresses Ras and Rab interactor 1/Tyrosine-protein kinase ABL1 (Homo sapiens, UniProt P00519+Q13671).
Assay [2] addresses T1, Caspase-3 (Homo sapiens, UniProt P42574).
T1 sequence (P42574 whole entry): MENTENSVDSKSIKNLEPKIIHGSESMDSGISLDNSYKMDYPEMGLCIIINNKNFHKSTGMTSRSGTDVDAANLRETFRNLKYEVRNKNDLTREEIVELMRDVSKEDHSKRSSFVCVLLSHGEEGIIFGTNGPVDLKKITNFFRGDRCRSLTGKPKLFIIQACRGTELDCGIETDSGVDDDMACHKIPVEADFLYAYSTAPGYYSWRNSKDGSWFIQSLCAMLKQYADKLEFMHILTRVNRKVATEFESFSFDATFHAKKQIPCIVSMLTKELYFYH

In assay [3] the target is T2, Sentrin-specific protease 7 (Homo sapiens, UniProt Q9BQF6).
T2 sequence (Q9BQF6 whole entry): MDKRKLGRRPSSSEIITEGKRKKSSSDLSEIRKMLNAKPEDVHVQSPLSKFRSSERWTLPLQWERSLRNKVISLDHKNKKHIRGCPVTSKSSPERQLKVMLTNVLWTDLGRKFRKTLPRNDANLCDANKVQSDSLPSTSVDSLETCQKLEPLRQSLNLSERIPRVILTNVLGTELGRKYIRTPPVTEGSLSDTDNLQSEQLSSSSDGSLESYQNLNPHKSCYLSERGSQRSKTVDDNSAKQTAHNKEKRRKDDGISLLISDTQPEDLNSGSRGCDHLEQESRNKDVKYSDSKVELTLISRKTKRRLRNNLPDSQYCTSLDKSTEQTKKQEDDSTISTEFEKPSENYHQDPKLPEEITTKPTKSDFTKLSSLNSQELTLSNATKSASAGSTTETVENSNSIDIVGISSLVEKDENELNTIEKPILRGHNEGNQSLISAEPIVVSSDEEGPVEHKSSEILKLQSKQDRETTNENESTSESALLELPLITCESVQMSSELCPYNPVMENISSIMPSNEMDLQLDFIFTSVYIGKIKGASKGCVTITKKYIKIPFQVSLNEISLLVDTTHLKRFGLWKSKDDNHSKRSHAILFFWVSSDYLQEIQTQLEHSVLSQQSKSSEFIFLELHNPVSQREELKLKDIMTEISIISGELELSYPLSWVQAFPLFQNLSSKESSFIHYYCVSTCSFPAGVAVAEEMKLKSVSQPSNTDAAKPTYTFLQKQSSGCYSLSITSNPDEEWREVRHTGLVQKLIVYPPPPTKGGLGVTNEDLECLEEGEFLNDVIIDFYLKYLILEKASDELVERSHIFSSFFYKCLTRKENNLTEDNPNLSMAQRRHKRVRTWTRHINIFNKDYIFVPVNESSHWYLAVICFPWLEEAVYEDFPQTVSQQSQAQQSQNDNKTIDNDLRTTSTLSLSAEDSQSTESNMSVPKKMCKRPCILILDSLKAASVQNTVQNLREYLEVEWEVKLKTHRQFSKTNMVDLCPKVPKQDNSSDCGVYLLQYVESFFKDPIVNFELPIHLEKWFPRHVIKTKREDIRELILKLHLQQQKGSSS

In assay [4] the target is T3, Apoptotic protease-activating factor 1 (Homo sapiens, UniProt O14727).
T3 sequence (O14727 whole entry): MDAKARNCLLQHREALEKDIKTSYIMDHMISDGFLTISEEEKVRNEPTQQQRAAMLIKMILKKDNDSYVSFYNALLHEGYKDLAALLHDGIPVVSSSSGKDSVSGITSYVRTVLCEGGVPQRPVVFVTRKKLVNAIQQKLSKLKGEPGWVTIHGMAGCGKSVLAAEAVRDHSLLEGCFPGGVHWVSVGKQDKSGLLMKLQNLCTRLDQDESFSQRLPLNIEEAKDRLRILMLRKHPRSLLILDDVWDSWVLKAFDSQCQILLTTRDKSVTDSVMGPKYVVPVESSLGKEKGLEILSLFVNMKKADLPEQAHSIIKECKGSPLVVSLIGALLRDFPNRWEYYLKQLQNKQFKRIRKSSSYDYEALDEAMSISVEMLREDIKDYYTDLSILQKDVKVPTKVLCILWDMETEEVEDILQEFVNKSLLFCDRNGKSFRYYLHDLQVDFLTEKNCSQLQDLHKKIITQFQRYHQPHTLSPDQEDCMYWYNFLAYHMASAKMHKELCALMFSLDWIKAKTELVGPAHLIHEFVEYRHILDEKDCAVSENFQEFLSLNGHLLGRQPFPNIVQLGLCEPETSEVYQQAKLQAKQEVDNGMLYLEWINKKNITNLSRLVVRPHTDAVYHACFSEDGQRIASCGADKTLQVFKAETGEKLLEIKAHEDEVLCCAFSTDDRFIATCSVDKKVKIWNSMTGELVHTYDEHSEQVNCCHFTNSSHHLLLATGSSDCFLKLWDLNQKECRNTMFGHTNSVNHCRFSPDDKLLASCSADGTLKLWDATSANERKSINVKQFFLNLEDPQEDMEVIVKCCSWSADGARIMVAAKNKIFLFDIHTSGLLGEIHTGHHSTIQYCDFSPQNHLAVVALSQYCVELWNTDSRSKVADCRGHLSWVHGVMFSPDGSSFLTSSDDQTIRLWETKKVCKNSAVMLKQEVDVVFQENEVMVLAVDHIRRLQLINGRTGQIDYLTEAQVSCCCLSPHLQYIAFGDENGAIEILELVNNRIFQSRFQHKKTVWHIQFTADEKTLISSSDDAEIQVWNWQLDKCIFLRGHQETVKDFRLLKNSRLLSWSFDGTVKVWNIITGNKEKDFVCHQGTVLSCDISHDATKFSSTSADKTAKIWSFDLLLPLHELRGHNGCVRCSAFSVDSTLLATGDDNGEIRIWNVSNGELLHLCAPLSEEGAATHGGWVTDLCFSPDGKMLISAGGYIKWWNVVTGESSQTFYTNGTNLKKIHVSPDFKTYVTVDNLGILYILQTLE

Assay [5] addresses T2, Sentrin-specific protease 7. Description: SENP7 protease inhibitors, SAR follow-up, biochemical, luminescence (AID 504497).

Ras and Rab interactor 1/Tyrosine-protein kinase ABL1, sequence (P00519 whole entry): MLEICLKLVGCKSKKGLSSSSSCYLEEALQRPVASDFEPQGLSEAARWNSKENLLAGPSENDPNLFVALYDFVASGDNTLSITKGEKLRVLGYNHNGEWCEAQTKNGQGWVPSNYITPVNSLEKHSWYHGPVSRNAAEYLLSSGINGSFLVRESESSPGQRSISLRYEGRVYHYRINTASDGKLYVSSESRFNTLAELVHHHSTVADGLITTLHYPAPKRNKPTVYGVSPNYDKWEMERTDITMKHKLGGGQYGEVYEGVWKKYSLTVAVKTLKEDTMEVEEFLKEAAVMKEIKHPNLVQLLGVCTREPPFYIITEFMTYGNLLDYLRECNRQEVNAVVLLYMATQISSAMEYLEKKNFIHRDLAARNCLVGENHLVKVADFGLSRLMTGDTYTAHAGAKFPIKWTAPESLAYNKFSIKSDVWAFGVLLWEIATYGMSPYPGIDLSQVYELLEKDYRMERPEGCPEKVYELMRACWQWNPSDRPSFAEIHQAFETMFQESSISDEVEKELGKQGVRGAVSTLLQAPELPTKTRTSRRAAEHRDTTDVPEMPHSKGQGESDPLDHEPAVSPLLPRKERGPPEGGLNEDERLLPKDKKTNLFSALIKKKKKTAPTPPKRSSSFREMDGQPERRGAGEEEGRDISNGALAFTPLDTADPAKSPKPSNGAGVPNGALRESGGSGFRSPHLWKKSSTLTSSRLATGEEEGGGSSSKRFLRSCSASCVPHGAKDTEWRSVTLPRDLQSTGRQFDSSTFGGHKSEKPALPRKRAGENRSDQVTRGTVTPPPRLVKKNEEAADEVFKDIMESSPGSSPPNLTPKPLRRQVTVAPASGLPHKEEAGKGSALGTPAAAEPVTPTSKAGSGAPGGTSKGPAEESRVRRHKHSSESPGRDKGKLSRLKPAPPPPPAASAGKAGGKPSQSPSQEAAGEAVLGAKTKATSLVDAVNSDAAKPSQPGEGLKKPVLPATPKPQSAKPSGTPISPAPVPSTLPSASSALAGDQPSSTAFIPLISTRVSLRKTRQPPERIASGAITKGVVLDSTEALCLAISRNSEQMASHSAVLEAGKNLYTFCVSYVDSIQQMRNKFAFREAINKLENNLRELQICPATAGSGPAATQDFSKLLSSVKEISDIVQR
Ras and Rab interactor 1/Tyrosine-protein kinase ABL1, sequence (Q13671 whole entry): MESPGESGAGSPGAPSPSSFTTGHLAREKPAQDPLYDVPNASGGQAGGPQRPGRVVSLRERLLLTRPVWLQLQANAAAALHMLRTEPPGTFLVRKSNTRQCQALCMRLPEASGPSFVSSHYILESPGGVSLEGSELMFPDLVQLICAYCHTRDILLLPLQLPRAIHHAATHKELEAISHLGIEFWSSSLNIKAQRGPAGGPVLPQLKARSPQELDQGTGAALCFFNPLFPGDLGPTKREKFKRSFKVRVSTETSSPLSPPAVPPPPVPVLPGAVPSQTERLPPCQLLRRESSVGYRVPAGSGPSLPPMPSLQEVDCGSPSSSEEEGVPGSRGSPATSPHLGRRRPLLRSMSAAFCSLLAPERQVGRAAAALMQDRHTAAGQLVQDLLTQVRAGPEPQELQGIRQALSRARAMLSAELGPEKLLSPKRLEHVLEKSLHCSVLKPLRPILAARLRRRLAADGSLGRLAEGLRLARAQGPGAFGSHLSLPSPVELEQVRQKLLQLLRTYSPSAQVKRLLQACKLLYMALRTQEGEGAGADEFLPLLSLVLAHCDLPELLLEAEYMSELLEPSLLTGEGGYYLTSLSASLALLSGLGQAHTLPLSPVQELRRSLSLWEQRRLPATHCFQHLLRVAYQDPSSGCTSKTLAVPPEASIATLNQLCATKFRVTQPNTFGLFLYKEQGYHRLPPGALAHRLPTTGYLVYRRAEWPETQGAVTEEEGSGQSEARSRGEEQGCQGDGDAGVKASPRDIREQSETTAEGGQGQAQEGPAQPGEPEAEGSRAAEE

The IC50 is the concentration that gives 50% inhibition. Consider `O=C(NN=c1c(=O)c2ccccc2c1=O)c1ccccc1`, for which the IC50 in assay [1] is > 73.5 µM (inactive); in assay [2], > 100 µM (inactive); in assay [3], 10.7 µM (active); in assay [4], 1.66 µM (active); in assay [5], 12 µM (active).
